Measurements from US5994363A (priority 1998, dated 1999).
Values joined by “and” are separate entries in the source; they are usually repeats but may differ in a detail not shown here. Equal values may be shown once. Where a name gives a salt, the structure may show the parent alone.

Experiments:
[1] = Number of dogs acclimatized to retching/vomiting; blood pressure and heart rate (Example 2); assay type: in vivo, dog
Description: This study provides a different view of data recorded in Example 1.
Observations were made at three different dosage levels, 0.04, 0.1 and 0.4 mg/kg/day. No dose escalation was attempted in this study. A group of five dogs was used for tests at each dosage level. The number of dogs in each dosage group with a retching or vomiting episode in each post-administration time period was recorded for daily administration over about 180 days. Ten day averages were calculated and plotted (see FIGS. 3 through 6).
The blood pressure and heart rates of an untreated group of dogs was evaluated for comparison purposes.

[2] = Adverse events in escalating dose tolerance study in psychogenic male erectile dysfunction (Example 5); assay type: in vivo, human
Description: Example 5-Summary. This clinical study was conducted in three phases. In Phase 1 subjects were selected from among patients complaining of impotence by a thorough physiological and psychological assessment. For example, one step in the assessment process required candidates to undergo Rigiscan measurement of penile rigidity and circumference following administration of a placebo tablet in single blind fashion. Phase 2 consisted of a dose escalation (4, 6, and 8 mg tablets) administered on 4 visits. An out-patient phase was conducted as Phase 3. Patients were given apomorphine HCL tablets to use at home.
Example-5 Detailed Description (Clinical Study #94-03-01). The human study was conducted in three separate phases. Phase 1 consisted of selecting appropriate subjects and obtaining baseline information on sexual performance for each subject.
They were tested on four separate days at four separate doses (placebo and three active medication doses) with an interval of no less than six days between visits (i.e., one visit per week).
If the trial was aborted, the patient was given the choice of having Gravol 50 mg p.o. (an anti-emetic) administered at that time or enduring the adverse events as they arose. In either event, the patient was monitored by the research clinician until all side-effects had subsided. The patient was asked to return the following week for the next scheduled dose.
(§1) During the five-week, home-use phase, subjects were to attempt coitus at least once each week after taking a single APO tablet. After each attempt, the subject and their partner completed a Sexual Function questionnaire (See FIGS. 15 and 16) which was later evaluated and used for final statistical analysis.
The data was analyzed by an inspection of the reported adverse events, the given dose of apomorphine and the phase of the study, i.e., in-patient (dose escalating) or take-home (constant dose) phases.

[3] = Penile erectile response ([…] score) with erotic and neutral videos (Example 5); assay type: in vivo, human; conditions: for Total RIGISCAN Score, Erotic 1: N = 31-36, ** significantly higher than placebo 1 and 2
Description: Each of the selected subjects' penile erectile response (measured with the […]™ ambulatory tumescence monitor) was evaluated using the scoring system as set out in Table IX, below.
The combining of the scores of A, B, C, and D from Table IX yields a total score for each subject. A total score of less than 16 for any individual subject indicates erectile dysfunction.
Patients not experiencing nausea or any other significant adverse effects within fifteen minutes post-dosing with APO or placebo viewed segments of standardized erotic videos to provide sexual stimulation. […] The duration of the testing session for each dose level lasted between 45 and 60 minutes.
This aim was accomplished during the first two phases of the study in which subjects were attached to the […]™ monitor. Subjects were initially treated with placebo, followed by APO 4, 6, and 8 mg. tablets with a placebo tablet randomly interspersed in the treatment.

[4] = Take-home sexual intercourse success rate (Example 5, Phase III); assay type: in vivo, human
Excerpt: as §1
(§2) For the third phase, subjects had recorded at baseline, their satisfaction,erection, number of attempts, and successful intercourse on a VAS scale (see Tables Xa-Xc, above). Evaluateable subjects first recorded a success rate, then completed VAS for erection results and satisfaction with intercourse following take-home treatment. The success rates, as shown in Tables XVa-XVb, below, were calculated for milligrams of APO as well as for micrograms per kilogram of the patient's body weight doses (males). There were four criteria for recording a success in the take-home phase. […] Several evaluations of the data were made including the male and female responses to treatments via questionnaires (see FIGS. 15 and 16).

[5] = Take-home erection results, VAS questionnaire question 1 (Example 5, Phase III); assay type: in vivo, human; conditions: for Erection Results (Maximum) Percent Change from Baseline, LSMEAN: all sites; for Erection Results (Maximum) Percent Change from Baseline, MEAN: all doses, site #1, #2, #3, #4, listed as APO
Excerpt: as §1, §2
(§3) Tables XVIIa--XVIId, below, show the statistical results of phase III with respect to Rigiscan™ results (a and b) and intercourse satisfaction (c and d) based on question 1 and question 3, respectively, from the completed questionnaires (see FIGS. 15 and 16). […] The maximum improvement from baseline were 56% in males and 59% in females. The mean improvement were 29% in males and 34% in females. […] The mean improvements were 34% in females and 45% in males.

[6] = Take-home intercourse satisfaction, VAS questionnaire question 3 (Example 5, Phase III); assay type: in vivo, human; conditions: for Satisfaction Percent Change from Baseline, LSMEAN / Satisfaction Percent Change from Baseline, MEAN: MALE
Excerpt: as §1, §2, §3

[7] = 100-400 μg/kg, up to four days, primates; cited from earlier work

CN1CCc2cccc3c2[C@H]1Cc1ccc(O)c(O)c1-3 [apomorphine HCl]
daily treatment needed for 80 percent effective acclimation ([1]; 0.4 mg/kg/day s.c.): about 3 months
net changes in blood pressure ([1]; after 5 months chronic treatment, vs untreated controls): not significantly different from the controls
heart rate after administration ([1]; after 5 months chronic treatment, 0.04, 0.1, 0.4 mg/kg/day): tachycardia sometimes occurs
bradycardia ([1]; initially, lost by acclimation): badycardia was reported in some subjects
Total Number of Adverse Events ([2]; Phase 2 (dose escalation), 4 mg/week): 31
Total Number of Adverse Events ([2]; Phase 2 (dose escalation), 6 mg/week): 58
Total Number of Adverse Events ([2]; Phase 2 (dose escalation), 8 mg/week): 50
Total Number of Adverse Events ([2]; Phase 3 (out-patient), 4 mg): 15
Total Number of Adverse Events ([2]; Phase 3 (out-patient), 6 mg): 13
Total Number of Adverse Events ([2]; Phase 3 (out-patient), 8 mg): 8
overall incidence of nausea ([2]; all administered doses): less than 13%
severe nausea cases ([2]; all doses): two
hypotension ([2]; also bradycardia, dizziness, syncope, pallor reported): reported as an adverse event in some subjects
Anti-Emetic In Patient, Total ([2]; in vivo): 8
Anti-Emetic Take Home, Total ([2]; in vivo): 2
In-Patient A.E.'s, Total ([2]; in vivo): 109
Take-Home A.E.'s, Total ([2]; in vivo): 25
decrease in adverse events per tablet ([2]; in vivo): ~95.6%
frequency of side effects ([2]; in vivo): 94.2%
incidence of vomiting ([2]; in vivo): less than 3%
increased sweating and fatigue ([2]; in vivo): also reported
severe hypotension and pallor ([2]; in vivo): Only single cases
severe increased sweating ([2]; in vivo): One of the cases
RIGISCAN score, erotic #1, comparison in words ([3]; 4 mg, Site #1): slightly lower
Penile Measurements (Maximum Increases), LSMEAN, NEUTRAL ([3]; 4 mg, b698 all sites, b704 site #1, b710 #2, b716 #3, b722 #4, listed as APO): 8.70
Total RIGISCAN Score, Erotic 1 ([3]; 6 mg): 17.09 ± 1.64
Penile Measurements (Maximum Increases), MEAN, NEUTRAL ([3]; 6 mg, b699 all sites, b705 site #1, b711 #2, b717 #3, b723 #4, listed as APO): 9.60
Total RIGISCAN Score, Erotic 1 ([3]; 8 mg): 19.84 ± 1.61
Total RIGISCAN Score, Neutral ([3]; 8 mg, N = 41-48, **): 11.95 ± 1.37
Penile Measurements (Maximum increase), Mean, EROTIC #1 ([3]; 8 mg, all sites, site #1, #2, #4, listed as APO): 19.84 and 15.60 and 25.00
RIGISCAN scores, treatment effect vs second placebo in words ([3]; 4, 6, and 8 mg): most of the treatment effects were significant to highly significant compared to the second placebo
RIGISCAN scores, treatment effect in words ([3]; 4, 6, and 8 mg vs initial placebo): significant to highly significant
RIGISCAN scores for penile increases in words ([3]; active doses, each of four sites, neutral and erotic sequences): improved significantly
RIGISCAN reading, effective in causing erections ([3]; all doses, erotic stimulation): greater than or equal to 15
Sexual Intercourse Success Rate ([4]; Female, 6 mg, listed as APO): 73.3% and 73%
Sexual Intercourse Success Rate ([4]; Female, 35-50 μg/kg): 60.0%
Sexual Intercourse Success Rate ([4]; Female, 50-74 μg/kg, listed as APO): 82%
Sexual Intercourse Success Rate ([4]; Female, Overall): 70.0%
Sexual Intercourse Success Rate ([4]; Male, 6 mg, listed as APO): 73.3% and 73%
Sexual Intercourse Success Rate ([4]; Male, 35-50 μg/kg): 80.0%
Sexual Intercourse Success Rate ([4]; Male, 50-74 μg/kg, listed as APO): 73%
Sexual Intercourse Success Rate ([4]; Male, Overall): 70.0%
overall success rate ([4]; whole study, baseline rate 28%, listed as APO): 70% and 72%
Erection Results (Maximum) Percent Change from Baseline, LSMEAN ([5]; FEMALE, 4 mg): 33.57%
Erection Results (Maximum) Percent Change from Baseline, LSMEAN ([5]; FEMALE, 6 mg): 45.00%
Erection Results (Maximum) Percent Change from Baseline, LSMEAN ([5]; FEMALE, 8 mg): 59.00%
Erection Results (Maximum) Percent Change from Baseline, MEAN ([5]; FEMALE): 52.56% and 41.25% and 46.50% and 36.29%
Erection Results (Maximum) Percent Change from Baseline, LSMEAN ([5]; MALE, 4 mg): 55.71%
Erection Results (Maximum) Percent Change from Baseline, LSMEAN ([5]; MALE, 6 mg): 42.80%
Erection Results (Maximum) Percent Change from Baseline, LSMEAN ([5]; MALE, 8 mg): 31.86%
Erection Results (Maximum) Percent Change from Baseline, MEAN ([5]; MALE): 52.22% and 57.00% and 36.22% and 33.00%
erection rigidity, mean improvement ([5]; females): 34%
erection rigidity, maximum improvement from baseline ([5]; females (best at 8 mg)): 59%
erection rigidity, mean improvement ([5]; males): 29%
erection rigidity, maximum improvement from baseline ([5]; males (best at 4 mg)): 56%
Satisfaction (Maximum) Change from Baseline, LSMEAN ([6]; FEMALE, 4 mg, all sites): 41.86
Satisfaction (Maximum) Change from Baseline, LSMEAN ([6]; FEMALE, 6 mg, all sites): 40.60
Satisfaction (Maximum) Change from Baseline, LSMEAN ([6]; FEMALE, 8 mg, all sites): 62.33
Satisfaction (Maximum) Change from Baseline, MEAN ([6]; FEMALE, all doses, site #1, #2, #3, #4, listed as APO): 57.00 and 37.75 and 33.29
Satisfaction Percent Change from Baseline, LSMEAN ([6]; 4 mg, all sites): 49.14%
Satisfaction Percent Change from Baseline, LSMEAN ([6]; 6 mg, all sites): 51.47%
Satisfaction Percent Change from Baseline, MEAN ([6]; 6 mg, all sites, site #1, #2, #3, #4, listed as APO): 51.47% and 40.60% and 59.50% and 54.50% and 58.00%
Satisfaction Percent Change from Baseline, LSMEAN ([6]; 8 mg, all sites): 56.57%
Satisfaction Percent Change from Baseline, MEAN ([6]; all doses, b893 site #1, b897 #2, b901 #3, b905 #4, listed as APO): 58.00% and 48.50% and 49.56% and 50.00%
VAS satisfaction, mean improvement ([6]; females): 34%
VAS satisfaction, maximum improvement from baseline ([6]; females, 8 mg): 62%
VAS satisfaction, mean improvement ([6]; males): 45%
VAS satisfaction, maximum improvement from baseline ([6]; males, 8 mg): 57%
adverse effects of multiple doses [7]: without major adverse effects
